Results from publication PMC4405029 (Bioorganic & medicinal chemistry letters, 2015).

Experiments:
Assay in all cases: Electrical cell-substrate impedance sensing
Format in all cases: cell-based
recombinant EP1 receptor = molecular target: T1, recombinant EP1 receptor (Homo sapiens, UniProt P34995); settings: ECIS, EP1 expressed in CHO cells
T1 sequence (P34995 1-402): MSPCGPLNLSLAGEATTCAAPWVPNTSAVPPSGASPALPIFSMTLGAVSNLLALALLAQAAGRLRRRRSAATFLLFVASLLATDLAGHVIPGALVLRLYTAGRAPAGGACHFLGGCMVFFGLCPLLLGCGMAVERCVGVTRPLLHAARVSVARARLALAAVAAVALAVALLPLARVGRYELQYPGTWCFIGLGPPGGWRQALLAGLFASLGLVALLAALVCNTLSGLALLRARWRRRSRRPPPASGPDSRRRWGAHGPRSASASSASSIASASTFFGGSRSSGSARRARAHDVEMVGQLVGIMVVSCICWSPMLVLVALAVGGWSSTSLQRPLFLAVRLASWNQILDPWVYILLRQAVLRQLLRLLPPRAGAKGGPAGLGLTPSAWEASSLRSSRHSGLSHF

recombinant EP3 receptor = molecular target: T2, recombinant EP3 receptor (Homo sapiens, UniProt P43115); settings: ECIS, EP3 expressed in CHO cells
T2 sequence (P43115 1-390): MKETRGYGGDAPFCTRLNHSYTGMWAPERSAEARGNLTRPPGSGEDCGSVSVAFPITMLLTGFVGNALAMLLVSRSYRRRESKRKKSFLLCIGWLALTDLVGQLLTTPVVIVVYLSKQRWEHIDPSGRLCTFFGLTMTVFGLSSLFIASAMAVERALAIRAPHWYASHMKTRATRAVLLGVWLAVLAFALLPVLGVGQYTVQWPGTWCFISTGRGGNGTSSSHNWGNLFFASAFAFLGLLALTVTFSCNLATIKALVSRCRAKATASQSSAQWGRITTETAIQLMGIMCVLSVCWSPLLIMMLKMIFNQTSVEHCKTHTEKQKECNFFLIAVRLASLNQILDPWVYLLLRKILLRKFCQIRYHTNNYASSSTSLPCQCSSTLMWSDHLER

recombinant EP4 receptor = settings: ECIS, EP4 expressed in CHO cells

## CCCCC[C@H](O)/C=C/[C@H]1[C@H](O)CC(=O)[C@@H]1C/C=C\CCCC(=O)O [PGE2]
Recombinant EP1 receptor
  Activation of EP1 receptor (cell impedance): rapid change in impedance
Recombinant EP3 receptor
  Activation of EP3 receptor (cell impedance): rapid change in impedance
Recombinant EP4 receptor
  Activation of EP4 receptor (cell impedance): rapid change in impedance

## O=C(CCC/C=C\C[C@H]1C(=O)C[C@@H](O)[C@@H]1/C=C/[C@@H](O)CCc1ccccc1)NCCO [12a]
Recombinant EP1 receptor
  Activation of EP1 receptor (cell impedance): did not activate
Recombinant EP3 receptor
  Activation of EP3 receptor (cell impedance): did not activate
Recombinant EP4 receptor
  Activation of EP4 receptor (cell impedance): did not activate

## CCCCC[C@H](O)/C=C/[C@H]1[C@H](O)CC(=O)[C@@H]1C/C=C\CCCC(=O)NCCO [PGE2-EA, prostaglandin-ethanolamide]
Recombinant EP1 receptor
  Activation of EP1 receptor (cell impedance): did not activate
Recombinant EP3 receptor
  Activation of EP3 receptor (cell impedance): did not activate
Recombinant EP4 receptor
  Activation of EP4 receptor (cell impedance): did not activate
